Data: article PMC5926414 (Japanese Journal of Cancer Research : Gann, 2000)
Like-named read-outs stand apart in the source and are kept apart here. Square brackets hold non-standard residues; d marks the D form. Peptide text beside a SMILES is read from it. * marks the point of attachment. X1 = COC1=CC(=O)N(C(=O)[C@@H](O*)C(C)C)[C@H]1Cc1ccccc1; NMe2Val = CC(C)[C@@H](C(=O)*)N(C)C; NMeV = CN[C@H](C(=O)O)C(C)C

Experiments:
porcine brain tubulin [1] = molecular target: T1, porcine brain tubulin (Sus scrofa, UniProt P02550+P02554); format: binding
[2] = molecular target: T2, porcine brain microtubule protein (Sus scrofa, UniProt P02550+P02554); test: biochemical
porcine brain tubulin [3] = format: biochemical
[4] = molecular target: T2, porcine brain microtubule protein; test: biochemical; conditions: read-out: inhibition of microtubule polymerization, agent alone
porcine brain tubulin [5] = molecular target: T1, porcine brain tubulin; test: biochemical; format: binding
bovine brain tubulin [6] = molecular target: T3, bovine brain tubulin (Bos taurus, UniProt P81947+Q6B856); test: biochemical
porcine brain tubulin [7] = conditions: ref 28 (Huang et al.); cited from earlier work
porcine brain tubulin [8] = format: binding
bovine brain tubulin [9] = molecular target: T3, bovine brain tubulin; conditions: read-out: IC50, inhibition of monosodium glutamate-induced tubulin polymerization; in 4% DMSO; ref 8 (Bai et al.); cited from earlier work

T2 sequence (P02550 whole entry): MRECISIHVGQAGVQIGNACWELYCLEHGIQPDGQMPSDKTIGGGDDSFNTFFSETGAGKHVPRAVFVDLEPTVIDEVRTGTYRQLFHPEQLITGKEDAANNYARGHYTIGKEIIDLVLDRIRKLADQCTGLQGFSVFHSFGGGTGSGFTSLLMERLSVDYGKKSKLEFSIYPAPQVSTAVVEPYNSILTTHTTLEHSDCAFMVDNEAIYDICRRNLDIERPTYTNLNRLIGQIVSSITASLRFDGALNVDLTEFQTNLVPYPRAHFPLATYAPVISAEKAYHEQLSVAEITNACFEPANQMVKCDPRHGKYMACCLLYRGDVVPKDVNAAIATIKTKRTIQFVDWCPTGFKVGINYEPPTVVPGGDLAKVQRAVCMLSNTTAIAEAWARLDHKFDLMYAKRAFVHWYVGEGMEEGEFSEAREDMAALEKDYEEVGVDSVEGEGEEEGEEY
T2 sequence (P02554 whole entry): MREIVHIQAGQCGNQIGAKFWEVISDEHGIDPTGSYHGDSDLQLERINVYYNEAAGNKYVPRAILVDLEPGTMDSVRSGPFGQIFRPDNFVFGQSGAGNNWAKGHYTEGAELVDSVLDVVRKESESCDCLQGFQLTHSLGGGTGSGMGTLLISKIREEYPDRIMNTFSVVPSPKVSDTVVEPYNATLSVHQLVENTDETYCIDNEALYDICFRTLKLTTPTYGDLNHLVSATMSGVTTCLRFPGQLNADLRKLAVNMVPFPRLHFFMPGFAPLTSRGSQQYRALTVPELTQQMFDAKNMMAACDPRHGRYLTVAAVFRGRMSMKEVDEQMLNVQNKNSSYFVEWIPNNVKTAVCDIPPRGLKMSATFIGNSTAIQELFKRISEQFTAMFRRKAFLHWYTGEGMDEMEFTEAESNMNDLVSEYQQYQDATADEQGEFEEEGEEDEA
T1 sequence (P02550 whole entry): as the sequence (P02550 whole entry) above
T1 sequence (P02554 whole entry): as the sequence (P02554 whole entry) above
T3 sequence (P81947 whole entry): as the sequence (P02550 whole entry) above, with S136L, G232S, A265I, T340S, E358Q counted along it
T3 sequence (Q6B856 whole entry): as the sequence (P02554 whole entry) above, with A55T, V170M, A296S, V316I, G440E, E441G counted along it

Row | Compound | displacement of [3H]TZT-1027 on tubulin (porcine brain tubulin [1]) | displacement of [3H]VLB on tubulin (porcine brain tubulin [1]) | IC50 [2] | inhibitory effect on microtubule polymerization at high concentration [2] | inhibition of GTP hydrolysis on tubulin (porcine brain tubulin [3]) | inhibition at 3 µM [4] | Bmax, binding to tubulin (one binding site) (porcine brain tubulin [5]) | Kd (porcine brain tubulin [5]) | IC50 (bovine brain tubulin [6]) | effect on tubulin polymerization at high concentration (bovine brain tubulin [6]) | concentration with inhibitory effect on the binding of GTP to tubulin (porcine brain tubulin [7]) | inhibition of [3H]GTP binding to tubulin (porcine brain tubulin [8]) | IC50 (bovine brain tubulin [9]) | inhibition at 3 µM (bovine brain tubulin [6]; read-out: inhibition of monosodium glutamate-induced tubulin polymerization)
1 | CC(=O)O[C@H]1C(=O)[C@@]2(C)[C@H]([C@H](OC(=O)c3ccccc3)[C@]3(O)C[C@H](OC(=O)[C@H](O)[C@@H](NC(=O)c4ccccc4)c4ccccc4)C(C)=C1C3(C)C)[C@]1(OC(C)=O)CO[C@@H]1C[C@@H]2O [PTX, paclitaxel] | did not have remarkable inhibitory effects | did not have remarkable inhibitory effects |  |  |  |  |  |  |  |  |  |  |  | 
2 | CC[C@]1(O)C[C@H]2CN(CCc3c([nH]c4ccccc34)[C@@](C(=O)OC)(c3cc4c(cc3OC)N(C=O)[C@H]3[C@@](O)(C(=O)OC)[C@H](OC(C)=O)[C@]5(CC)C=CCN6CC[C@]43[C@@H]65)C2)C1 [VCR, vincristine] | the displacement was not complete |  | 1600 ± 400 nM | slight decrease in inhibitory effect |  |  |  |  |  |  |  |  |  | 
3 | CC[C@]1(O)C[C@@H]2CN(CCc3c([nH]c4ccccc34)[C@@](C(=O)OC)(c3cc4c(cc3OC)N(C)[C@H]3[C@@](O)(C(=O)OC)[C@H](OC(C)=O)[C@]5(CC)C=CCN6CC[C@]43[C@@H]65)C2)C1 [VLB, vinblastine] | only incompletely |  | 2700 ± 600 nM | slight decrease in inhibitory effect | concentration-dependent inhibition | 64.7% | 6.0±0.26 nM/mg protein | 200 ± 40 nM | 600 nM | aggregation | above 100 M | no inhibitory effect |  | 
4 | CC[C@H](C)[C@@H]([C@@H](CC(=O)N1CCC[C@H]1[C@H](OC)[C@@H](C)C(=O)N[C@@H](Cc1ccccc1)c1nccs1)OC)N(C)C(=O)[C@@H](NC(=O)[C@H](C(C)C)N(C)C)C(C)C [dolastatin 10] | completely displaced | completely displaced | 2300 ± 700 nM |  | concentration-dependent inhibition |  |  |  | 2800 nM | no further increase in inhibition |  | concentration-dependent inhibition | 1200 nM | 88%
5 | COC1=CC(=O)N(C(=O)[C@@H](OC(=O)[C@@H]2CCCN2C(=O)[C@@H]2CCCN2C(=O)[C@H](C(C)C)N(C)C(=O)[C@@H](NC(=O)[C@H](C(C)C)N(C)C)C(C)C)C(C)C)[C@H]1Cc1ccccc1 [dolastatin 15] (NMe2Val-V[NMeV]PP-X1) | did not have remarkable inhibitory effects | did not have remarkable inhibitory effects |  |  | concentration-dependent inhibition |  |  |  |  |  |  |  |  | 
